pEC50, pIC50: −log10 of the molar value. Read-outs that look alike come from different tables or passages of the source. Bounds are passed on as bounds.

Assay [1] concerns HIV-1 wild type. Kind of assay: microbe, parasite or virus in culture. The assay is classed as cell-based. Conditions: for pEC50: wild type, read-out: EC50 WT RT; for EC50: Human immunodeficiency virus 1, read-out: EC50 WT RT (nM).
Assay [2] relates to HIV-1 double mutant K103N/Y181C. Put plainly: microbe, parasite or virus in culture. Format: cell-based. Conditions: for pEC50: double mutant K103N/Y181C, read-out: EC50 K103N/Y181C; for EC50: Human immunodeficiency virus 1, read-out: EC50 K103N/Y181C (nM).
In assay [3] the target is T1, HIV-1 RT double mutant K103N/Y181C (Human immunodeficiency virus type 1 group M subtype B, UniProt P03366, K702N/Y780C).
T1 construct: HIV-1 wild type reverse transcriptase as well as the clinically significant double mutant K103N/Y181C
Kind of assay: biochemical. On the procedure: (§1) Utilizing the Reverse Transcriptase (RT) Assay described below, compounds were tested for their ability to inhibit the RNA-dependent DNA polymerase activity of HIV-1 RT. Certain specific compounds described in the Examples and in Tables 1-4, were so tested. The results of this testing appear in Table 5 as ranges of IC50 (nM) and EC50 (nM).
(§2) Reverse Transcriptase (RT) Assays

Assay [4] concerns the target T2, HIV-1 wild type reverse transcriptase (Human immunodeficiency virus type 1 group M subtype B, UniProt P03366).
T2 construct: HIV-1 wild type reverse transcriptase
Kind of assay: biochemical. To be noted: wild type RT; read-out: IC50 WT RT. On the procedure:
as §1, §2

The mark [5] stands for this setting: RT double mutant K103N/Y181C, read-out: IC50 K103N/Y181C.

Turning to `CCN1c2ncc(CCOc3ccc(-c4ccc(C(=O)O)cc4)cc3F)cc2C(=O)N(C)c2cccnc21` [Entry 1004], the pEC50 in assay [1] was over 8.00; in assay [2], under 7.30. For the same compound, the pIC50 in assay [3] (setting [5]) is under 7.00; in assay [4], over 7.30.

Consider `CCN1c2ncc(CCOc3ccc(C(=O)NNC)cc3C)cc2C(=O)N(C)c2cccnc21` [Entry 4016], for which the pEC50 in assay [1] (Human immunodeficiency virus 1) is over 8.00. In addition, the EC50 in assay [2] was under 10 nM. Also, the pIC50 in assay [3] and in assay [4] was over 7.30 in each case.

Turning to `CCN1c2ncc(CCOc3ccc(C(=O)NCC4(C(=O)O)CCCC4)cc3C)cc2C(=O)N(C)c2cccnc21` [Entry 4018], in assay [1] (Human immunodeficiency virus 1), the pEC50 was over 8.00. Further, the EC50 in assay [2] lay within 10 to 50 nM. Further, the pIC50 in assay [3] is under 7.00; in assay [4] it was over 7.30.

For the compound `CCN1c2ncc(CCOc3ccc(NC(=O)c4ccc(C(=O)O)cc4)cc3C)cc2C(=O)N(C)c2cccnc21` [Entry 3032], the EC50 in assay [1] is 10 to 50 nM; in assay [2], over 50 nM. Also, the pIC50 in assay [3] and in assay [4] was over 7.30 throughout.

Turning to `CCN1c2ncc(CCOc3ccc(C(=O)Nc4ccc(CC(=O)O)cc4)cc3C)cc2C(=O)Nc2c(C)ccnc21` [Entry 3018], the EC50 is 10 to 50 nM in assay [1] and over 50 nM in assay [2]. Further, the pIC50 in assay [3] and in assay [4] was over 7.30 throughout.

Turning to `CCN1c2ncc(CCOc3ccc(NC(=O)c4ccccc4C(=O)O)cc3C)cc2C(=O)N(C)c2cccnc21` [Entry 3033], the EC50 in assay [1] was under 10 nM; in assay [2] it was 10 to 50 nM. The pIC50 is under 7.00 in assay [3] and over 7.30 in assay [4].

As for `CCN1c2ncc(CCOc3ccc(S(=O)(=O)NCC(=O)O)cc3C)cc2C(=O)N(C)c2cccnc21` [Entry 4020], the pEC50 in assay [1] (Human immunodeficiency virus 1) was under 7.30. Moreover, in assay [2], the EC50 was over 50 nM. The pIC50 in assay [3] and in assay [4] was over 7.30 each time.

In the case of `CCN1c2ncc(CCOc3ccc(Nc4cccc(CC(=O)O)c4)cc3C)cc2C(=O)N(C)c2cccnc21` [Entry 3024], the EC50 in assay [1] and in assay [2] was under 10 nM in each case. Also, the pIC50 in assay [3] and in assay [4] was over 7.30 in each case.

In the case of `CCN1c2ncc(CCOc3ccc(NC(=O)CC4(C(=O)O)CCCC4)cc3C)cc2C(=O)N(C)c2cccnc21` [Entry 4007], the pEC50 in assay [1] (Human immunodeficiency virus 1) is over 8.00. For the same compound, the EC50 in assay [2] is under 10 nM. Also, the pIC50 in assay [3] is under 7.00; in assay [4], over 7.30.

For the compound `CCN1c2ncc(CCOc3ccc(C(=O)c4ccc(C(=O)O)cc4)cc3C)cc2C(=O)N(C)c2cccnc21` [Entry 3027], the EC50 is under 10 nM in assay [1] and 10 to 50 nM in assay [2]. Besides, the figures for the pIC50 in assay [3] and in assay [4] were 7.00 to 7.30 and over 7.30, respectively.

On to `CCN1c2ncc(CCOc3ccc(-c4cccc(CC(=O)O)c4)cc3C)cc2C(=O)N(C)c2cccnc21` [Entry 1015], for which the pEC50 in assay [1] and in assay [2] was over 8.00 in each case. The pIC50 in assay [3] (setting [5]) and in assay [4] was over 7.30 throughout.

With `CCN1c2ncccc2NC(=O)c2cc(CCOc3ccc(-c4ccc(CC(=O)O)cc4)cc3C)cnc21` [Entry 1058], the pEC50 in assay [1] was over 8.00; in assay [2] it was 7.30 to 8.00. Also, the pIC50 in assay [3] (setting [5]) was 7.00 to 7.30; in assay [4] it was over 7.30.

Turning to `CCN1c2ncc(CCOc3ccc(C(=O)NN)cc3C)cc2C(=O)N(C)c2cccnc21` [Entry 4011, 4-[2-(11-Ethyl-6,11-dihydro-5-methyl-6-oxo-5H-dipyrido[3,2-b:2′,3′-e][1,4]diazepin-8-yl)ethoxy]-3-methylbenzoic acid hydrazide], the pEC50 in assay [1] (Human immunodeficiency virus 1) was over 8.00. The EC50 in assay [2] was under 10 nM. Besides, the pIC50 in assay [3] and in assay [4] was over 7.30 in each case.

In the case of `CCN1c2ncc(CCOc3ccc(C(=O)NC(C)(C)C(=O)O)cc3C)cc2C(=O)N(C)c2cccnc21` [Entry 4012], in assay [1] (Human immunodeficiency virus 1), the pEC50 was 7.30 to 8.00. In addition, the EC50 in assay [2] was over 50 nM. Further, the values for the pIC50 in assay [3] and in assay [4] were 7.00 to 7.30 and over 7.30, respectively.

Consider `CCN1c2ncc(CCOc3ccc(-c4cc(C(=O)O)on4)cc3C)cc2C(=O)N(C)c2cccnc21` [Entry 1041, 3-{4-[2-(11-Ethyl-6,11-dihydro-5-methyl-6-oxo-5H-dipyrido[3,2-b:2′,3′-e][1,4]diazepin-8-yl)ethoxy]-3-methylphenyl}-5-isoxazolecarboxylic acid], for which, in assay [1] (Human immunodeficiency virus 1), the pEC50 is under 7.30. The EC50 in assay [2] is over 50 nM. Besides, the pIC50 in assay [3] and in assay [4] was over 7.30 throughout.

As for `CCN1c2ncc(CCOc3ccc(C(=O)NS(C)(=O)=O)cc3C)cc2C(=O)N(C)c2cccnc21` [Entry 4013, 4-[2-(11-Ethyl-6,11-dihydro-5-methyl-6-oxo-5H-dipyrido[3,2-b:2′,3′-e][1,4]diazepin-8-yl)ethoxy]-3-methyl-N-(methylsulfonyl)benzamide], in assay [1] (Human immunodeficiency virus 1), the pEC50 is 7.30 to 8.00. For the same compound, in assay [2], the EC50 was over 50 nM. For the same compound, the pIC50 in assay [3] is under 7.00; in assay [4], over 7.30.

As to `CCN1c2ncc(CCOc3ccc(-c4ccc(CC(=O)O)cc4)cc3)cc2C(=O)N(C)c2cccnc21` [Entry 1007], the pEC50 is 7.30 to 8.00 in assay [1] and under 7.30 in assay [2]. For the same compound, the pIC50 in assay [3] (setting [5]) is 7.00 to 7.30; in assay [4] it was over 7.30.

For the compound `CCN1c2ncc(CCOc3ccc(-c4cc(C(=O)O)c(C)o4)cc3)cc2C(=O)N(C)c2cccnc21` [Entry 1047, 5-{4-[2-(11-Ethyl-6,11-dihydro-5-methyl-6-oxo-5H-dipyrido[3,2-b:2′,3′-e][1,4]diazepin-8-yl)ethoxy]phenyl}-2-methyl-3-furanecarboxylic acid], the pEC50 in assay [1] (Human immunodeficiency virus 1) was 7.30 to 8.00. Moreover, in assay [2], the EC50 was over 50 nM. In addition, the figures for the pIC50 in assay [3] and in assay [4] were under 7.00 and over 7.30, respectively.

For `CCN1c2ncc(CCOc3ccc(C(=O)Nc4ccccc4C(=O)O)cc3C)cc2C(=O)N(C)c2cccnc21` [Entry 3011], the values for the EC50 in assay [1] and in assay [2] were 10 to 50 nM and over 50 nM, respectively. Moreover, the figures for the pIC50 in assay [3] and in assay [4] were under 7.00 and over 7.30, respectively.

Consider `CCN1c2ncc(CCOc3ccc(-c4ccc(C(=O)O)cc4)cc3)cc2C(=O)N(C)c2cccnc21` [Entry 1001], for which the figures for the pEC50 in assay [1] and in assay [2] were over 8.00 and under 7.30, respectively. Besides, the figures for the pIC50 in assay [3] (setting [5]) and in assay [4] were 7.00 to 7.30 and over 7.30, respectively.

In the case of `CCN1c2ncc(CCOc3ccc(-c4ccc(C(=O)O)cc4)c(Cl)c3)cc2C(=O)N(C)c2cccnc21` [Entry 1006], the pEC50 was 7.30 to 8.00 in assay [1] and under 7.30 in assay [2]. For the same compound, the pIC50 in assay [3] (setting [5]) is 7.00 to 7.30; in assay [4], over 7.30.

As for `CCN1c2ncc(CCOc3ccc(-c4ccncc4)cc3)cc2C(=O)N(C)c2cccnc21` [Entry 1090, 11-Ethyl-5,11-dihydro-5-methyl-8-{2-[4-(4-pyridinyl)phenoxy]ethyl}-6H-dipyrido[3,2-b:2′,3′-e][1,4]diazepin-6-one], in assay [1] (Human immunodeficiency virus 1), the pEC50 was over 8.00. Further, the EC50 in assay [2] was in the range of 10 to 50 nM. For the same compound, the pIC50 in assay [3] was 7.00 to 7.30; in assay [4], over 7.30.

`CCN1c2ncc(CCOc3ccc(C(=O)Nc4cccc[n+]4[O-])cc3C)cc2C(=O)Nc2c(C)ccnc21` [Entry 3019]: the pEC50 in assay [1] and in assay [2] was over 8.00 each time. Also, the pIC50 is 7.00 to 7.30 in assay [3] (setting [5]) and over 7.30 in assay [4].

As to `CCN1c2ncc(CCOc3ccc(-c4ccccc4)cc3)cc2C(=O)N(C)c2cccnc21` [Entry 1101], the pEC50 in assay [1] is over 8.00; in assay [2] it was under 7.30. Further, the pIC50 is 7.00 to 7.30 in assay [3] (setting [5]) and over 7.30 in assay [4].

As to `CCN1c2ncc(CCOc3ccc(-c4cccc(CC(=O)O)c4)cc3)cc2C(=O)N(C)c2cccnc21` [Entry 1014], the pEC50 in assay [1] is over 8.00; in assay [2], 7.30 to 8.00. The pIC50 was under 7.00 in assay [3] (setting [5]) and over 7.30 in assay [4].

`CCN1c2ncc(CCOc3ccc(-c4ccc(CC(=O)O)cc4)cc3C)cc2C(=O)N(C)c2cccnc21` [Entry 1008]: the pEC50 in assay [1] and in assay [2] was over 8.00 in each case. Moreover, the pIC50 in assay [3] (setting [5]) and in assay [4] was over 7.30 throughout.

Take `CCN1c2ncc(CCOc3ccc(-c4cocn4)cc3C)cc2C(=O)N(C)c2cccnc21` [Entry 1099, 11-Ethyl-5,11-dihydro-5-methyl-8-{2-[2-methyl-4-(4-oxazolyl)phenoxy]ethyl}-6H-dipyrido[3,2-b:2′,3′-e][1,4]diazepin-6-one]: the pEC50 in assay [1] (Human immunodeficiency virus 1) was over 8.00. The EC50 in assay [2] is under 10 nM. The pIC50 in assay [3] and in assay [4] was over 7.30 throughout.

Turning to `CCN1c2ncc(CCOc3ccc(-c4ccc(C(=O)O)cc4)c(C)c3)cc2C(=O)N(C)c2cccnc21` [Entry 1005], the pEC50 in assay [1] is 7.30 to 8.00; in assay [2] it was under 7.30. Also, the pIC50 in assay [3] (setting [5]) was under 7.00; in assay [4], over 7.30.

On to `CCN1c2ncc(CCOc3ccc(-c4ccc(CC(=O)O)cc4)cc3CO)cc2C(=O)N(C)c2cccnc21` [Entry 1104], for which the pEC50 in assay [1] was over 8.00; in assay [2], 7.30 to 8.00. The pIC50 in assay [3] (setting [5]) and in assay [4] was over 7.30 throughout.

Consider `CCN1c2ncc(CCOc3ccc(C(=O)NS(=O)(=O)c4ccccc4)cc3C)cc2C(=O)N(C)c2cccnc21` [Entry 3009], for which the EC50 in assay [1] was 10 to 50 nM; in assay [2], over 50 nM. The pIC50 in assay [3] is under 7.00; in assay [4], over 7.30.

The values are drawn from patent US6806265B2, “Non-nucleoside reverse transcriptase inhibitors” (priority 2002, dated 2004).
